Experiments:
[1] = test system: outdated red blood cells; assay: Organ chamber bioassay of vasodilator response at low pO2, outdated red blood cells (Example V); format: cell-based; details: for relaxations: 1:250 molar ratio NO or nitrite to hemoglobin, deoxygenated with argon, then oxygenated by air, FIG. 3
Source text: Samples from each set were deoxygenated by bubbling argon gas therethrough and then admixed with PBS, PBS with NO dissolved therein or PBS with sodium nitrite dissolved therein. The treatments loaded the red blood cells with 1:250 molar ratio NO or nitrite to hemoglobin. The red blood cells were then oxygenated by exposure to air.

[2] = Infusion in patient with primary pulmonary hypertension class II (Example III); format: in vivo, human
Source text: A person with primary pulmonary hypertension class II presents complaining with shortness of breath. The patient's normal NO level is know from prior testing. […] Infusion of NO in 0.9% NaCl at a rate of 5 nmol/min of NO is effected. The shortness of breath symptom resolves. After three days of therapy, pulmonary artery pressure has dropped 5 mm of mercury.

[3] = test system: Red cells; assay: Storage of red cells incubated with NO at weekly intervals (Example VI); format: cell-based; details: 1:250 molar ratio NO to hemoglobin, 10 minutes at weekly intervals; at 8 weeks
Description: Red cells are incubated at a molar ratio of 1:250 NO to hemoglobin for 10 minutes at weekly intervals. At 8 weeks, NO levels and vasodilator response are preserved.

[4] = Transfusion of NO-doped blood unit in patient with severe coronary artery disease (Example VII); format: in vivo, human; details: person; second blood unit doped with NO, 1:250 molar ratio of NO to hemoglobin
[5] = Infusion in patient with unstable angina (Example II); format: in vivo, human
Source text: A person is admitted to a hospital with unstable angina. The patient is given I.V. nitroglycerin, heparin and a beta blocker. However, the patient continues to experience chest pain at rest. The patient's normal NO level is known from past testing. […] Infusion at a rate of 5 nmol/min of NO in 0.9% NaCl is effected. The chest pain resolves.

[6] = biological target: hemoglobin (Homo sapiens, UniProt P68871+P69905); details: PBS pH 7.4, 300 μM nitrite, heme 1 mM; compared to SNO-oxyhemoglobin samples
hemoglobin, sequence (P69905 2-142 limits assumed): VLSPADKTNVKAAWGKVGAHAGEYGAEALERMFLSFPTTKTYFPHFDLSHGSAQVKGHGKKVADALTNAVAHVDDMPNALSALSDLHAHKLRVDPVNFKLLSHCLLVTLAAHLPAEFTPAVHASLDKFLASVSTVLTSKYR
hemoglobin, sequence (P68871 2-147 limits assumed): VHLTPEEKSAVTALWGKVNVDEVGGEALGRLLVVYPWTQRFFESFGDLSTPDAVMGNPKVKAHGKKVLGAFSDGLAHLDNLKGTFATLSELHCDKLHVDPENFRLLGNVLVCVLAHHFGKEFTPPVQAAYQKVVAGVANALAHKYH
Description: For assay by EPR, spectroscopy was carried out as described in Gow, A. J., et al, Proc. Natl. Acad. Scie. […] SNO-oxyhemoglobin samples (0.5 mM protein) for comparison were prepared as described in Jia, L., et al, Nature, 380, 221-226 (1996).
Comparison was to SNO-oxyhemoglobin samples (0.5 mM protein) prepared as described in Jia, L., et al, Nature 380, 221-226 (1996).

[7] = test system: native fresh red blood cells
Description: The samples were deoxygenated by placing them in a bioassay bath at low pO2. Then, in paired samples, sodium nitrite (1:200 molar ratio of nitite to hemoglobin in phosphate buffered saline) was added to the deoxygenated red blood cells for 10 minutes. The samples were then re-oxygenated by reintroducing air followed by shaking.

[8] = anaerobic saturated solution in saline infused at 100 nmol/min

Compound | relaxations [1] | drop of pulmonary artery pressure ([2]; after three days of therapy, NO 5 nmol/min) | shortness of breath symptom ([2]; person, infusion of NO in 0.9% NaCl at 5 nmol/min) | vasodilator response [3] | chest pain on transfusion [4] | chest pain ([5]; person, unstable angina, infusion 5 nmol/min of NO in 0.9% NaCl) | oxygen delivery improving activity identified with NO [6] | vasodilator response [7] | chest pain ([5]; nitrite additionally given at 100 nmol/min with the NO infusion) | vasodilator response ([1]; 1:200 molar ratio nitrite to hemoglobin in PBS, added to deoxygenated cells for 10 minutes, then re-oxygenated, FIG. 2) | oxygen delivery [8]
[N]=O [NO, nitric oxide] | improved and effectively normalized | 5 mm of mercury | resolves | preserved | not experienced | resolves |  |  |  |  | 
O=NO [nitrite] | improved and effectively normalized |  |  |  |  |  | facilitated | no effect | resolves more quickly |  | 
O=NO [sodium nitrite] |  |  |  |  |  |  |  |  |  | normalize | Improved

Reference: patent US20060088942A1, “Measuring nitric oxide in blood gases and treatments based thereon” (priority 2002, published 2006)
